Results on 4 compounds are retold here after patent publication US10537550B2, “Methods of treating underlying inflammation from COPD or asthma” (MEDA PHARMA GMBH & CO. KG, priority 2004, dated 2020).

Structures are written as SMILES. Read-outs that look alike come from different tables or passages of the source. Bounds are passed on as bounds.

In data set [1] the test system is TNFα release from human peripheral blood mononuclear cells (PBMCs). The experiment in a line: LPS-induced TNFα release from human PBMCs/monocytes (sandwich ELISA). It counts as cell-based. Conditions: LPS 1 μg/ml; for IC50: Homo sapiens, PBMC, read-out: IC50 of inhibition of TNFα release. On the procedure: The influence of R,R-glycopyrrolate in combination with glucocorticoids on TNFα release was investigated by using human peripheral blood mononuclear cells (PBMCs). The study was approved by our institutional Ethics Committee according to the International Declarations of Helsinki and Tokyo. PBMCs were isolated from heparinized blood samples of healthy donors by density gradient centrifugation. An equal volume of Hanks buffer (Life Technologies, Heidelberg, Germany) is added to heparinized whole blood samples. 15 ml Histopaque-1077 (Sigma, Deisenhofen, Germany) are overlayed with a maximum of 40 ml of blood/Hanks mixture were centrifuged for 30 min at room temperature (2000 rpm). A visible band containing PBMCs is transferred to a fresh tube and washed twice with Hanks-buffer. Finally cells are seeded in RPMI 1640 Medium (Life Technologies, Heidelberg, Germany) with Glutamax I (Gibco BRL, Eggenstein) and 10% FCS (Boehringer Mannheim, Penzberg, Germany). After isolated, PBMCs were cultured in RPMI 1640 medium supplemented with 10% fetal calf serum (FCS) at 37° C. 5% CO2 overnight. Monocytes were isolated from other cells by adherence method, non-adherent cells were removed by changing the medium. Cells are re-suspended at 10^6 cells/ml and incubated in 500 μl volumes in 24-well tissue culture plates (Falcon Becton Dickinson Labware) at 37° C., 5% CO2. After pre-incubation with test substances (0.5 μl/500 μl medium) for 30 min, cells were stimulated with lipopolysaccharide (LPS) (1 μg/ml). At indicated times cells were sedimented by centrifugation, the supernatants were harvested and kept frozen at −80° C. until protein determination; the cells were lysed by RLT lysis Buffer (Qiagen, Hilden, Germany) and frozen at −80° C. until analysis. […] Plates are read at 450 nm (reference 570 nm) in a microplate reader (Dynatech). The results are expressed as a percentage of the control level of cytokines production by cells stimulated in the absence of the compound.

For data set [2], the system named is pulmonary M1 and M3 muscarinic receptor subtypes. Conditions: following inhalation of single doses; cited from earlier work.
For data set [3] the following is noted: in vivo; cited from earlier work.

Consider `C[N+]1(C)CC[C@@H](OC(=O)[C@](O)(c2ccccc2)C2CCCC2)C1.[Br-]` [R,R-glycopyrrolate], for which, in data set [1] (alone, up to 10 μmol/l, human monocytes), the “influence on LPS-induced TNFα release” value is on record as “did not influence”.

For `C[N+]1(C)[C@@H]2C[C@@H](OC(=O)C(O)(c3cccs3)c3cccs3)C[C@H]1[C@@H]1O[C@@H]12` [Tiotropium], the duration of bronchodilation in data set [2] was 24 h.

In general, IC50 refers to the concentration that inhibits the measured activity by half. Consider `CCCC1O[C@@H]2C[C@H]3[C@@H]4CCC5=CC(=O)C=C[C@]5(C)[C@H]4[C@@H](O)C[C@]3(C)[C@]2(C(=O)CO)O1` (some centres unmarked) [budesonide], for which the half-inhibitory concentration (IC50) in data set [1] (budesonide alone, human monocytes) stood at 0.55 ± 0.13 nM; in data set [1] (simultaneous addition of 10 μmol/l R,R-glycopyrrolate, p=0.0251), 0.13 ± 0.03 nM.

Regarding `C[C@@H]1C[C@H]2[C@@H]3C[C@H](F)C4=CC(=O)C=C[C@]4(C)[C@@]3(F)[C@@H](O)C[C@]2(C)[C@@]1(O)C(=O)SCF` [fluticasone], the oral bioavailability in data set [3] is below 1%.
